System: Gbe^ys/ys mice
Test: Survival, weight and motor phenotypes in APBD mouse model
Format: in vivo
From the text: Pictures of 7-months old Gbe^ys/ys mice treated with vehicle (1L), or Compound 1 (1M) for 3 months prior to photography.
The presented experiments combine in vivo, ex vivo and in vitro studies on the therapeutic potential of the newly discovered compound Compound 1 for treating APBD. In the in vivo section, the inventors have tested Compound 1 for its capacity to correct disease phenotypes in Gbe^ys/ys female mice. Two arms, 5% DMSO vehicle and Compound 1, of initially n=7-9 animals each were used. […] Additional open field, gait, and extension reflex tests (FIGS. 1E-1H) also included a C57BL/6 wild type control arm of n=9 animals. Animals were excluded from the experiment if weight was reduced by >10% between sequential weightings or by >20% from initiation. […] 150 μL of 250 mg/kg Compound 1 in 5% DMSO were injected twice a week. Vehicle control was 5% DMSO. Injection was intravenous (IV) for the first month, followed by subcutaneous (SC) injection due to lack of injection space and scaring in animal tails. The inventors initiated the injections either at the age of 4 months, two months prior to disease onset, assuming a preferred prophylactic effect, or at the 6 months age of onset for comparison. Treatment was continued until the age of 10 months. The effect of Compound 1 on various motor parameters was tested approximately every two weeks. At the end of these experiments, some of the mice were sacrificed by cervical dislocation and tissues from n=2 wild type, n=7 Gbe^ys/ys vehicle-treated, and n=9 Compound 1-treated mice were collected, sectioned, fixed, and stained for diastase-resistant PG by PAS (FIGS. 2A-2C). Tissue glycogen was determined biochemically as described. In addition, Compound 1 pharmacokinetic profile was determined by LC-MS/MS in serum and tissues derived from n=3 mice/time point. Experimenters were blinded to treatment allocation.
In FIGS. 1A-1M the significance of overall trends was tested by Two-way ANOVA with repeated measures. […] The Bonferroni test was used to compare between Compound 1 and vehicle in a way which corrects for the multiple comparisons and is therefore very robust (since the threshold for determining significance at each time point is reduced in a manner inversely proportional to the number of comparisons). […] In FIGS. 4D and 6E the inventors used One Way ANOVA with Sidak's post-hoc correction for multiple comparisons. Other statistical tests used were Student t-tests.

For `COCCN(Cc1sccc1C)C(=O)c1cc(C)nc(O)c1` [Compound 1], the “animal weight over time” value (250 mg/kg twice a week from age 4 months) was “mitigated the decline in animal weight over time”, the animal survival (250 mg/kg twice a week from age 4 months, vs 5% DMSO vehicle) was “significantly improved animal survival” and the “ameliorating effect on open field, weight and overall extension reflex” value (administered after disease onset at the age 6 months) was “ameliorating effect did not take place”. For the same compound, the Extension reflex (administered at onset (6 months), at the age of 9 months) was “only parameter improved by the compound from the advanced stage of the disease”, the open field performance (from 8 months, 134 days post injection) was “improved open field performance” and the “gait (stride length)” value (mouse age of 9 months) was “improved gait, or increased stride length”. The overall extension reflex (throughout the study period, p<0.05) was “significantly improved”.

Reference: patent publication US20240139167A1, “LYSOSOME-ASSOCIATED MEMBRANE PROTEIN TARGETING COMPOUNDS AND USES THEREOF” (HADASIT MEDICAL RESEARCH SERVICES AND DEVELOPMENT LTD., priority 2021, published 2024)
